Reference: patent publication US20240245677A1, “SELECTED COMPOUNDS FOR TARGETED DEGRADATION OF BRD9” (C4 THERAPEUTICS, INC., priority 2021, published 2024)

How the values were obtained:
[1] = test system: cryopreserved hepatocytes from Sprague-Dawley rats; assay: Rat Hepatocyte Stability Assay; format: in vitro ADME
Description: (§1) The metabolic stability of Compound 1 was evaluated using cryopreserved hepatocytes from mice, rats, dogs, cynomolgus monkeys, and humans.
(§2) 50 μL of 1 mM intermediate solutions for each test compound was prepared by adding 5 μL of 10 mM stock solution to 45 μL of a 1:1 mixture of water and acetonitrile. A 2 μM working stocks for each test compound were prepared in incubation media, InvitroGRO™ KHB (Bio IVT, Westbury, NY, USA), by adding 2 μL of 1 mM intermediate stock to 998 μL of incubation media.
(§3) To thaw the hepatocytes, InvitroGRO™ HT thawing medium (BioIVT, Westbury, NY, USA) was prewarmed to 37° C., and 48 mL of warmed thawing medium was transferred to a sterile 50 mL conical tube. The hepatocyte vial was removed from the liquid nitrogen Dewar, and gently thawed in a water bath at 37° C. for 1-2 minutes, then the contents of the vial were emptied into a conical tube with prewarmed InvitroGRO HT medium. 1 mL of prewarmed InvitroGRO HT medium was added to each emptied hepatocyte vial to resuspend any remaining cells, and the contents were pipetted into the hepatocyte suspension. The tube containing the hepatocyte suspension was centrifuged at 50*g for 5 minutes. The supernatant was removed carefully, and the remaining pellet was resuspended by adding 1 mL of incubation media, InvitroGRO KHB, and gently shaking until there were no clumps.
(§4) Cell viability was determined using the trypan blue method. 25 μL of hepatocyte cell suspension was added to a trypan blue (TB) solution (containing 775 μL InvitroGRO KHB and 200 μL of Trypan Blue). Cell count was taken using a hemacytometer.
(§5) For mouse hepatocytes, 200 μL of hepatocytes (0.8×10^6 cells/mL) were added to the wells of a 48 well plate (Catalog No. 92048, TPP Techno Plastic Products AG, Trasadingen, Switzerland) and pre-incubated for 30 minutes at 37° C. For rat, dog, monkey, […], 200 μL of hepatocytes (2×10^6 cells/mL) were added to the wells of a 48 well plate (Catalog No. 92048, TPP Techno Plastic Products AG, Trasadingen, Switzerland) and pre-incubated for 30 minutes at 37° C.
(§6) For all species of hepatocytes, once the pre-incubation period was complete, 200 μL of 2 μM working stock of test compound was added to the wells of the plate, and the plate was vortexed on a Vibramax™ 100 (P/N 544-21200-00, Heidolph Instruments GmbH & Co. KG, Schwabach, Germany) at 500 rpm in a 37° C. CO2 incubator (Model No. 51026280, ThermoFisher Scientific, Waltham, MA, USA). At each time point of 0, 15, 30, 60, 90, and 120 minutes, 50 μL of incubation mixture was precipitated with 200 μL of acetonitrile containing internal standard.
(§7) At the end of the experiment, the samples were centrifuged at 4000 rpm for 10 minutes. […]

[2] = Rat Hepatocyte Stability Assay; format: in vitro ADME; details: Sprague-Dawley, cryopreserved hepatocytes
Description: as §1, §2, §3, §4, §5, §6, §7

For COc1cc(-c2cn(C)c(=O)c(C)c2C)cc(OC)c1CN1CC[C@H](N2CCN(c3ccc(N[C@H]4CCC(=O)NC4=O)cc3F)CC2)C(F)(F)C1 [Compound 1, (S)-3-((4-(4-((S)-1-(2,6-dimethoxy-4-(1,4,5-trimethyl-6-oxo-1,6-dihydropyridin-3-yl)benzyl)-3,3-difluoropiperidin-4-yl)piperazin-1-yl)-3-fluorophenyl)amino)-piperidine-2,6-dione], the “CLh int in vivo” value [1] was 17.76 mL/min/Kg body wt, the “CLhb scaled well stirred” value [1] was 14.2 mL/min/kg body wt and the half-life at 1 µM [2] was over 2 h. The hepatocyte CLint at 1 µM ([2]; read-out: CL int cells) was 3.7 µL/min/1e6 cells.
